Measurements published in the CheMixHub viscosity set.

Assay: xn = mol fraction of the nth substance listed

CCOC(C)=O + O
298.15 K, 101 kPa
Conditions | viscosity [mPa·s]
x1 = 0.00139 | 0.9095
x1 = 0.001837 | 0.9129
x1 = 0.003766 | 0.9354
x1 = 0.006372 | 0.9652
x1 = 0.006895 | 0.9678
x1 = 0.01022 | 1.004
x1 = 0.01327 | 1.036
x1 = 0.8902 | 0.4495
x1 = 0.9238 | 0.4395
x1 = 0.9579 | 0.4312

CCOC(C)=O + CN1CCCC1=O
viscosity [mPa·s], 101 kPa
Conditions | x2 = 0.1022 | x2 = 0.2038 | x2 = 0.305 | x2 = 0.4057 | x2 = 0.506 | x2 = 0.6057 | x2 = 0.705 | x2 = 0.8038 | x2 = 0.9021
303.15 K | 0.556 | 0.725 | 0.879 | 1.023 | 1.154 | 1.271 | 1.369 | 1.449 | 1.511
308.15 K | 0.523 | 0.669 | 0.804 | 0.928 | 1.042 | 1.147 | 1.235 | 1.307 | 1.365
313.15 K | 0.492 | 0.628 | 0.753 | 0.869 | 0.975 | 1.07 | 1.153 | 1.221 | 1.274
318.15 K | 0.462 | 0.582 | 0.695 | 0.798 | 0.893 | 0.976 | 1.051 | 1.114 | 1.165

CCOc1ccccc1 + CCCCCCCCCCO
viscosity [mPa·s], 101.3 kPa
Conditions | x1 = 0.0999 | x1 = 0.2011 | x1 = 0.2996 | x1 = 0.4003 | x1 = 0.5011 | x1 = 0.6025 | x1 = 0.6998 | x1 = 0.8007 | x1 = 0.9012
293.15 K | 11.33 | 8.76 | 6.789 | 5.22 | 4.017 | 3.116 | 2.486 | 2.001 | 1.637
298.15 K | 9.33 | 7.335 | 5.786 | 4.5 | 3.502 | 2.729 | 2.188 | 1.79 | 1.501
308.15 K | 6.907 | 5.541 | 4.402 | 3.45 | 2.705 | 2.149 | 1.724 | 1.397 | 1.144
318.15 K | 4.863 | 3.962 | 3.226 | 2.613 | 2.125 | 1.726 | 1.414 | 1.147 | 0.9405

CCOC(C)=O + CCCCCO
viscosity [mPa·s], 101.33 kPa
Conditions | x1 = 0.1 | x1 = 0.2 | x1 = 0.3 | x1 = 0.4001 | x1 = 0.5001 | x1 = 0.6036 | x1 = 0.7001 | x1 = 0.8001 | x1 = 0.9
298.15 K | 2.349 | 1.693 | 1.282 | 1.011 | 0.829 | – | 0.6 | 0.521 | 0.472
303.15 K | 2.079 | 1.53 | 1.161 | 0.924 | 0.766 | 0.644 | 0.561 | 0.486 | 0.446
308.15 K | 1.843 | 1.367 | 1.053 | 0.848 | 0.681 | 0.599 | 0.525 | 0.459 | 0.392

COc1ccc(C=O)cc1 + Cc1ccccc1
viscosity [mPa·s], 101 kPa
Conditions | x1 = 0.0899 | x1 = 0.1818 | x1 = 0.2759 | x1 = 0.3721 | x1 = 0.4706 | x1 = 0.5714 | x1 = 0.6747 | x1 = 0.7805 | x1 = 0.8889
303.15 K | 0.5703 | 0.6449 | 0.7185 | 0.9019 | 1.099 | 1.356 | 1.551 | 2.61 | 2.857
308.15 K | 0.5414 | 0.6128 | 0.6929 | 0.8502 | 1.018 | 1.258 | 1.388 | 2.218 | 2.505
313.15 K | 0.512 | 0.5751 | 0.6448 | 0.7809 | 0.9332 | 1.122 | 1.259 | 2.011 | 2.165
318.15 K | 0.4586 | 0.5216 | 0.5862 | 0.7004 | 0.8327 | 0.9898 | 1.098 | 1.65 | 1.825

CCOC(C)=O + CCCCO
298.15 K
Conditions | viscosity [mPa·s]
101 kPa, x2 = 0.12 | 0.48
101 kPa, x2 = 0.23 | 0.51
101 kPa, x2 = 0.34 | 0.578
101 kPa, x2 = 0.44 | 0.648
101 kPa, x2 = 0.54 | 0.79
101 kPa, x2 = 0.64 | 0.987
101 kPa, x2 = 0.73 | 1.165
101 kPa, x2 = 0.83 | 1.425
101 kPa, x2 = 0.91 | 1.815
101.33 kPa, x2 = 0.1338 | 0.468
101.33 kPa, x2 = 0.2522 | 0.517
101.33 kPa, x2 = 0.3724 | 0.599
101.33 kPa, x2 = 0.4809 | 0.691
101.33 kPa, x2 = 0.5952 | 0.838
101.33 kPa, x2 = 0.7033 | 1.041
101.33 kPa, x2 = 0.801 | 1.331
101.33 kPa, x2 = 0.8918 | 1.741

CCOC(C)=O + C1COCCO1
Conditions | viscosity [mPa·s]
303.15 K, 101 kPa, x2 = 0.1021 | 0.435
303.15 K, 101 kPa, x2 = 0.2024 | 0.466
303.15 K, 101 kPa, x2 = 0.2982 | 0.505
303.15 K, 101 kPa, x2 = 0.4026 | 0.553
303.15 K, 101 kPa, x2 = 0.4968 | 0.602
303.15 K, 101 kPa, x2 = 0.6025 | 0.668
303.15 K, 101 kPa, x2 = 0.697 | 0.742
303.15 K, 101 kPa, x2 = 0.8007 | 0.834
303.15 K, 101 kPa, x2 = 0.9003 | 0.948
303.15 K, 101.32 kPa, x1 = 0.0451 | 1.02
303.15 K, 101.32 kPa, x1 = 0.0948 | 0.948
303.15 K, 101.32 kPa, x1 = 0.1332 | 0.901
303.15 K, 101.32 kPa, x1 = 0.1779 | 0.848
303.15 K, 101.32 kPa, x1 = 0.2236 | 0.802
303.15 K, 101.32 kPa, x1 = 0.3187 | 0.717
303.15 K, 101.32 kPa, x1 = 0.4176 | 0.648
303.15 K, 101.32 kPa, x1 = 0.467 | 0.616
303.15 K, 101.32 kPa, x1 = 0.5155 | 0.59
303.15 K, 101.32 kPa, x1 = 0.6182 | 0.539
303.15 K, 101.32 kPa, x1 = 0.7243 | 0.497
303.15 K, 101.32 kPa, x1 = 0.8297 | 0.456
303.15 K, 101.32 kPa, x1 = 0.9411 | 0.422
308.15 K, 101 kPa, x2 = 0.1 | 0.439
308.15 K, 101 kPa, x2 = 0.2 | 0.475
308.15 K, 101 kPa, x2 = 0.3 | 0.506
308.15 K, 101 kPa, x2 = 0.4 | 0.542
308.15 K, 101 kPa, x2 = 0.5 | 0.58
308.15 K, 101 kPa, x2 = 0.6 | 0.625
308.15 K, 101 kPa, x2 = 0.8 | 0.756
308.15 K, 101 kPa, x2 = 0.9 | 0.852
313.15 K, 101.32 kPa, x1 = 0.209 | 0.717
313.15 K, 101.32 kPa, x1 = 0.405 | 0.583
313.15 K, 101.32 kPa, x1 = 0.5144 | 0.528
313.15 K, 101.32 kPa, x1 = 0.602 | 0.49
313.15 K, 101.32 kPa, x1 = 0.7994 | 0.423

CCOC(C)=O + Cc1ccccc1
viscosity [mPa·s], 101 kPa
Conditions | 298.15 K | 308.15 K
x1 = 0.045 | 0.538 | 0.49
x1 = 0.1 | 0.534 | –
x1 = 0.1501 | 0.514 | 0.472
x1 = 0.21 | 0.512 | –
x1 = 0.2483 | 0.495 | 0.457
x1 = 0.31 | 0.506 | –
x1 = 0.3517 | 0.478 | 0.443
x1 = 0.41 | 0.484 | –
x1 = 0.4469 | 0.464 | 0.431
x1 = 0.4912 | 0.459 | 0.426
x1 = 0.51 | 0.482 | –
x1 = 0.5503 | 0.452 | 0.42
x1 = 0.61 | 0.478 | –
x1 = 0.6489 | 0.443 | 0.411
x1 = 0.71 | 0.455 | –
x1 = 0.749 | 0.436 | 0.403
x1 = 0.81 | 0.445 | –
x1 = 0.8507 | 0.431 | 0.395
x1 = 0.9 | 0.428 | –
x1 = 0.9432 | 0.429 | 0.39
x2 = 0.1513 | 0.466 | –
x2 = 0.442 | 0.481 | –
x2 = 0.7034 | 0.509 | –

OCC(O)CO + CC(=O)N(C)C
viscosity [mPa·s], 101 kPa
Conditions | x1 = 0.124 | x1 = 0.241 | x1 = 0.353 | x1 = 0.459 | x1 = 0.56 | x1 = 0.656 | x1 = 0.748 | x1 = 0.836 | x1 = 0.92
303.15 K | 2.21 | 3.92 | 7.04 | 12.8 | 29.9 | 61.6 | 120.7 | 204.4 | 335.7
318.15 K | 1.78 | 3.01 | 4.79 | 7.81 | 17.6 | 26.3 | 43.2 | 75.9 | 117.4

COC(=O)CC(C)=O + CCOC(=O)c1ccccc1
viscosity [mPa·s], 101.33 kPa
Conditions | x1 = 0.0992 | x1 = 0.2023 | x1 = 0.3004 | x1 = 0.399 | x1 = 0.4991 | x1 = 0.5978 | x1 = 0.6966 | x1 = 0.7979 | x1 = 0.8986
298.15 K | 1.834 | 1.796 | 1.757 | 1.729 | 1.7 | 1.653 | 1.633 | 1.598 | 1.583
303.15 K | 1.661 | 1.627 | 1.593 | 1.571 | 1.543 | 1.501 | 1.484 | 1.452 | 1.44
308.15 K | 1.514 | 1.484 | 1.453 | 1.434 | 1.408 | 1.373 | 1.356 | 1.328 | 1.316

CCCCCCCCn1cc[n+](C)c1.[Cl-] + CN1CCCC1=O
100 kPa
Conditions | viscosity [mPa·s]
293.15 K, x1 = 0.2805 | 26.15
308.15 K, x1 = 0.3657 | 33.55
308.15 K, x1 = 0.4679 | 67.15
318.15 K, x1 = 0.4679 | 43.25

CCOc1ccccc1 + CCO
298.15 K, 101 kPa
Conditions | viscosity [mPa·s]
x2 = 0.3183 | 1.067
x2 = 0.5186 | 1.035
x2 = 0.6605 | 1.01
x2 = 0.764 | 0.997
x2 = 0.8437 | 0.991
x2 = 0.9064 | 1
x2 = 0.9609 | 1.035

CCOc1ccccc1 + Nc1ccccc1
viscosity [mPa·s], 101 kPa
Conditions | x1 = 0.09206 | x1 = 0.1748 | x1 = 0.2667 | x1 = 0.3716 | x1 = 0.4789 | x1 = 0.5934 | x1 = 0.7132 | x1 = 0.8542
293.35 K | 3.64 | 3.17 | 2.75 | 2.39 | 2.1 | 1.84 | 1.63 | 1.428
302.75 K | 2.7 | 2.38 | 2.115 | 1.87 | 1.67 | 1.495 | 1.335 | 1.169
313.15 K | 2.08 | 1.865 | 1.675 | 1.5 | 1.355 | 1.225 | 1.106 | 0.982
